Test results: patent US11807644B2 (PMV Pharmaceuticals, Inc., priority 2020, dated 2023)

biological target: T1, recombinant His-tag Y220C p53 DBD protein (Homo sapiens, UniProt P04637, Y220C); test: In vitro DNA binding activity assay (TR-FRET): binding of His-tag Y220C p53 DBD to biotin-labeled consensus DNA; assay type: biochemical; details: SC150 = concentration to increase DNA binding by […], His-tag Y220C p53 DBD, biotin-labeled consensus DNA
T1 construct: recombinant His-tag Y220C p53 DBD protein (amino acids #˜94-312)

Compound | Y220C SC150 (μM)
CN1CC[C@H](F)[C@H](Nc2cccc3c2cc(-c2noc(CNC(=O)c4ccn(C(C)(C)C)c4)n2)n3CC(F)(F)F)C1 (racemic) [Compound 389B, rac-1-tert-butyl-N-{[3-(4-{[(3R,4S)-4-fluoro-1-methylpiperidin-3-yl]amino}-1-(2,2,2-trifluoroethyl)-1H-indol-2-yl)-1,2,4-oxadiazol-5-yl]methyl}-1H-pyrrole-3-carboxamide] | * (* = 0 μM ≤ SC150 < 0.1 μM)
CN1CC[C@@H](Nc2cccc3c2cc(-c2noc(CNC(=O)c4ccc(C(C)(C)O)s4)n2)n3CC(F)(F)F)[C@@H](F)C1 [Compound 424B, N-[[3-[4-[[(3S,4R)-3-fluoro-1-methyl-4-piperidyl]amino]-1-(2,2,2-trifluoroethyl)indol-2-yl]-1,2,4-oxadiazol-5-yl]methyl]-5-(1-hydroxy-1-methyl-ethyl)thiophene-2-carboxamide] | * (* = 0 μM ≤ SC150 < 0.1 μM)
CN1CC[C@@H](Nc2cccc3c2cc(-c2noc(CNC(=O)C4CC4)n2)n3CC(F)(F)F)[C@@H](F)C1 [Compound 173B, N-{[3-(4-{[(3S,4R)-3-fluoro-1-methylpiperidin-4-yl]amino}-1-(2,2,2-trifluoroethyl)-1H-indol-2-yl)-1,2,4-oxadiazol-5-yl]methyl}cyclopropanecarboxamide] | * (* = 0 μM ≤ SC150 < 0.1 μM)
CN1CCC(Nc2cccc3c2cc(-c2nnc(CNc4cn[nH]c4)s2)n3CC(F)(F)F)CC1 [Compound 82B, N-(1-methylpiperidin-4-yl)-2-(5-{[(1H-pyrazol-4-yl)amino]methyl}-1,3,4-thiadiazol-2-yl)-1-(2,2,2-trifluoroethyl)-1H-indol-4-amine] | ** (** = 0.1 μM ≤ SC150 < 0.5 μM)
CCCNC[C@@H]1C[C@H]1C(=O)NCc1nc(-c2cc3c(N[C@@H]4CCN(C)C[C@@H]4F)cccc3n2CC(F)(F)F)no1 [Compound 247B, (1R,2R)-N-{[3-(4-{[(3S,4R)-3-fluoro-1-methylpiperidin-4-yl]amino}-1-(2,2,2-trifluoroethyl)-1H-indol-2-yl)-1,2,4-oxadiazol-5-yl]methyl}-2-[(propylamino)methyl]cyclopro-pane-1-carboxamide] | * (* = 0 μM ≤ SC150 < 0.1 μM)
CN1CC[C@H](F)[C@H](Nc2cccc3c2cc(-c2noc(CNC(=O)c4ccn(C5(C)CCOCC5)c4)n2)n3CC(F)(F)F)C1 [Compound 403B, N-{[3-(4-{[(3R,4S)-4-fluoro-1-methylpiperidin-3-yl]amino}-1-(2,2,2-trifluoroethyl)-1H-indol-2-yl)-1,2,4-oxadiazol-5-yl]methyl}-1-(4-methyloxan-4-yl)-1H-pyrrole-3-carboxamide] | * (* = 0 μM ≤ SC150 < 0.1 μM)
O=C(NCc1nc(-c2cc3c(NC4CCS(=O)(=O)CC4)cccc3n2CC(F)(F)F)no1)C1CC1 [Compound 162B, N-[(3-{4-[(1,1-dioxo-1λ^6-thian-4-yl)amino]-1-(2,2,2-trifluoroethyl)-1H-indol-2-yl}-1,2,4-oxadiazol-5-yl)methyl]cyclopropanecarboxamide] | * (* = 0 μM ≤ SC150 < 0.1 μM)
CN1CC[C@@H](Nc2cccc3c2cc(-c2nc(CNC(=O)c4ccccc4)cs2)n3CC(F)(F)F)[C@@H](F)C1 (racemic) [Compound 90B, N-{[2-(4-{[(3S,4R)-3-fluoro-1-methylpiperidin-4-yl]amino}-1-(2,2,2-trifluoroethyl)-1H-indol-2-yl)-1,3-thiazol-4-yl]methyl}benzamide] | **** (**** = 1 μM ≤ SC150 < 10 μM)
CN1CC[C@@H](Nc2cccc3c2cc(-c2noc(CNc4cccc5c4ccn5C)n2)n3CC(F)(F)F)[C@@H](F)C1 [Compound 462B, N-[(3S,4R)-3-fluoro-1-methylpiperidin-4-yl]-2-(5-{[(1-methyl-1H-indol-4-yl)amino]methyl}-1,2,4-oxadiazol-3-yl)-1-(2,2,2-trifluoroethyl)-1H-indol-4-amine] | * (* = 0 μM ≤ SC150 < 0.1 μM)
CN1CC[C@@H](Nc2cccc3c2cc(-c2noc(CNc4ccn[nH]4)n2)n3CC(F)(F)F)[C@@H](F)C1 [Compound 230B, N-[(3S,4R)-3-fluoro-1-methylpiperidin-4-yl]-2-(5-{[(1H-pyrazol-5-yl)amino]methyl}-1,2,4-oxadiazol-3-yl)-1-(2,2,2-trifluoroethyl)-1H-indol-4-amine] | * (* = 0 μM ≤ SC150 < 0.1 μM)

Now from value to compound:

Y220C SC150 (μM) | Compound
** (** = 0.1 μM ≤ SC150 < 0.5 μM) | CN1CC[C@@H](Nc2cccc3c2cc(-c2noc(CNc4ccnn4C(C)(C)C)n2)n3CC(F)(F)F)[C@@H](F)C1 [Compound 396B, 2-(5-{[(1-tert-butyl-1H-pyrazol-5-yl)amino]methyl}-1,2,4-oxadiazol-3-yl)-N-[(3S,4R)-3-fluoro-1-methylpiperidin-4-yl]-1-(2,2,2-trifluoroethyl)-1H-indol-4-amine]
** (** = 0.1 μM ≤ SC150 < 0.5 μM) | CN1CC[C@@H](Nc2cccc3c2cc(-c2noc(CNS(=O)(=O)c4ccccc4)n2)n3CC(F)(F)F)[C@@H](F)C1 [Compound 221B, N-{[3-(4-{[(3S,4R)-3-fluoro-1-methylpiperidin-4-yl]amino}-1-(2,2,2-trifluoroethyl)-1H-indol-2-yl)-1,2,4-oxadiazol-5-yl]methyl}benzenesulfonamide]
**** (**** = 1 μM ≤ SC150 < 10 μM) | CNCc1nnc(-c2cc3c(N[C@@H]4CCN(C)C[C@@H]4F)cccc3n2CC(F)(F)F)s1 (racemic) [Compound 43B, (+/−)-N-[(3R,4S)-3-fluoro-1-methylpiperidin-4-yl]-2-{5-[(methylamino)methyl]-1,3,4-thiadiazol-2-yl}-1-(2,2,2-trifluoroethyl)-1H-indol-4-amine]

same assay, conditions: concentration to increase DNA binding by […], incubated at either 27° C. or 29° C. for 60 min

Compound | SC150 (μM)
CN1CC[C@H](Nc2cccc3c2cc(-c2ccc(CNC4CC4)cc2)n3CC(F)(F)F)[C@H](F)C1 (racemic) [Compound 42A, (+/−)-2-{4-[(cyclopropylamino)methyl]phenyl}-N-[(3R,4S)-3-fluoro-1-methylpiperidin-4-yl]-1-(2,2,2-trifluoroethyl)-1H-indol-4-amine] | ++++ (++++ = 10 μM ≤ SC150 < 35 μM)
CC(C)(C#N)c1ccc(NCc2ccc(-c3cc4c(NC5CCS(=O)(=O)CC5)cccc4n3CC(F)(F)F)cc2)cn1 [Compound 7A, 2-(5-{[(4-{4-[(1,1-dioxo-1λ^6-thian-4-yl)amino]-1-(2,2,2-trifluoroethyl)-1H-indol-2-yl}phenyl)methyl]amino}pyridine-2-yl)-2-methylpropanenitrile] | ++ (++ = 2 μM ≤ SC150 < 5 μM)
CC(C)(C#N)c1ccc(NC(=O)NCc2ccc(-c3cc4c(NC5CCS(=O)(=O)CC5)cccc4n3CC(F)(F)F)cc2)cn1 [Compound 18A, 3-[6-(1-cyano-1-methylethyl)pyridin-3-yl]-1-[(4-{4-[(1,1-dioxo-1λ^6-thian-4-yl)amino]-1-(2,2,2-trifluoroethyl)-1H-indol-2-yl}phenyl)methyl]urea] | + (+ = 0 μM ≤ SC150 < 2 μM)

The remaining lines, values ahead:

SC150 (μM) | Compound
+++ (+++ = 5 μM ≤ SC150 < 10 μM) | CN(Cc1ccc(-c2cc3c(NC4CCS(=O)(=O)CC4)cccc3n2CC(F)(F)F)cc1)C(=O)OC(C)(C)C [Compound 4A, tert-butyl N-[(4-{4-[(1,1-dioxo-1λ^6-thian-4-yl)amino]-1-(2,2,2-trifluoroethyl)-1H-indol-2-yl}phenyl)methyl]-N-methylcarbamate]
+++ (+++ = 5 μM ≤ SC150 < 10 μM) | CN1CCC(Nc2cccc3c2cc(-c2ccc(C(N)c4ccccc4)cc2)n3CC(F)(F)F)CC1 (stereo not drawn) [Compound 38A, 2-{4-[amino(phenyl)methyl]phenyl}-N-(1-methylpiperidin-4-yl)-1-(2,2,2-trifluoroethyl)-1H-indol-4-amine]
